Assay results: US20030134859A1 (SANKYO COMPANY, LIMITED, priority 2000, published 2003)

Experiments:
Rat white adipocytes = assay: Stimulation of differentiation of the adipocytes (Oil Red O); assay type: cell-based; details: 100 nM test compound, 5 days, Oil Red O ABS550, control = 100%, blank = 0%, Table 7; for activity at 0.1 µM: Rattus norvegicus, Adipocyte, 120 h, read-out: Rate of Differentiation (%)
In short: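 Oil Red O lipid staining, absorbance 550 nm after DMSO extraction, quantified differentiation of rat white adipocytes exposed 5 days to compound (final 100 nM, 0.1% DMSO) in differentiation medium. Percent differentiation normalised between cell-free blank (0%) and DMSO control (100%).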

TNF-α production = assay: Inhibitory activity against cytokine (TNF-α) production in LPS-stimulated RAW264.7 cells; assay type: cell-based, mouse; details: 1 μM test compound, LPS 10 ng/mL; for inhibition at 1 µM: Mus musculus, RAW264.7, 15 h
In short: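 Mouse RAW264.7 macrophages (5,000 cells/well) stimulated with 10 ng/mL LPS (final) and treated with test compound at 1 μM final for 15 h at 37 °C. Supernatant mouse TNF-α measured by ELISA; % inhibition = 100−(A−B)/(C−B)×100, using unstimulated and LPS-only controls.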

| Structure (SMILES) | activity at 0.1 µM (Rat white adipocytes) | inhibition at 1 µM (TNF-α production) | Rate of Differentiation (%) (Rat white adipocytes) | Inhibitory Activity (%) against TNF-α production (TNF-α production; 15 hr) |
| --- | --- | --- | --- | --- |
| Cc1csc(NC(=O)c2cc([N+](=O)[O-])ccc2Cl)n1 [Example 3, N-(4-Methylthiazol-2-yl)-(2-chloro-5-nitrophenyl)carboxamide] | 126% | 17% |  |  |
| O=C(Nc1nc2ccc(Cc3ccc(F)cc3)cc2s1)c1cc([N+](=O)[O-])ccc1Cl [Example 90, N-[6-(4-Fluorobenzyl)benzothiazol-2-yl]-(2-chloro-5-nitrophenyl)carboxamide] | 131% | 19.4% |  |  |
| O=C(Nc1ccc(-c2ccc(O)cc2)cc1)c1cc([N+](=O)[O-])ccc1Cl [Example 135, N-[4-(4-Hydroxyphenyl)phenyl]-2-(chloro-5-nitrophenyl)carboxamide] |  |  | 128.0% | 16.6% |
